Calls of active or inactive are those of the source. No cut-off for these calls is given here.
Key:
[1] = biological target: T1, Poly [ADP-ribose] polymerase 1 (Homo sapiens, UniProt P09874); experiment: Inhibition of PARP1 in wild type human A549 cells preincubated with compound for 1 hr followed by H2O2 addition and measured after 5 mins by PARylation inhibition assay; assay type: cell-based
[2] = Acute toxicity in Kunming mouse assessed as change in cellular morphology of heart at 100 mg/kg administered once every other day via gavage for 14 days by H and E staining based analysis; assay type: organism-based; conditions: in vivo, po, 336 h, time 14 day
MDA-MB-436 [3] = experiment: Induction of cell cycle arrest in human MDA-MB-436 cells assessed as accumulation of cells at G0/G1 phase at 10 nM incubated for 3 days by PI staining based flow cytometric analysis (Rvb =56.18%); assay type: functional; conditions: time 3 day
[4] = Half life in rat at 2.5 mg/kg, po measured upto 96 hrs by LC-MS/MS analysis; assay type: ADME, organism-based; conditions: in vivo
[5] = Apparent volume of distribution in male Balb/c mouse at 1 mg/kg, iv measured upto 96 hrs by LC-MS/MS analysis; assay type: ADME, organism-based; conditions: in vivo, iv, 1 mg/kg, 96 h
[6] = Acute toxicity in Kunming mouse assessed as change in body weight at 100 to 300 mg/kg administered orally via gavage for 14 days; assay type: organism-based; conditions: in vivo, po, 336 h, dose 100-300 mg/kg, time 14 day
[7] = Half life in rat at 2.5 mg/kg, iv measured upto 96 hrs by LC-MS/MS analysis; assay type: ADME, organism-based; conditions: in vivo
MDA-MB-436 [8] = experiment: Induction of apoptosis in human MDA-MB-436 cells assessed as early apoptotic cells at 10 nM incubated for 3 days by Annexin V/ PI staining based flow cytometry (reference value: 12.8%); assay type: functional; conditions: time 3 day
[9] = biological target: T1, Poly [ADP-ribose] polymerase 1; experiment: Binding affinity to PARP1 (unknown origin) assessed as DNA trapping activity incubated for 1 hr by Envision 2105 plate reader analysis
MDA-MB-436 [10] = experiment: Induction of cell cycle arrest in human MDA-MB-436 cells assessed as accumulation of cells at G0/G1 phase at 1 nM incubated for 3 days by PI staining based flow cytometric analysis (Rvb =56.18%); assay type: functional; conditions: time 3 day
MDA-MB-436 [11] = experiment: Antitumor activity against human MDA-MB-436 cells xenografted in female NOD/SCID mouse assessed as tumor regression rate at 3 mg/kg, po administered once every other day for 28 days relative to control; assay type: functional; conditions: time 28 day
MDA-MB-436 [12] = experiment: Antitumor activity against luciferase tagged human MDA-MB-436 cells xenografted in female NOD-SCID mouse assessed as median survival time at 10 mg/kg, po administered once a day for 34 days; assay type: functional; conditions: time 34 day
[13] = Toxicity in female NOD/SCID mouse xenografted with human MDA-MB-436 cells assessed as histological changes in spleen at 3 mg/kg, po administered once every other day for 28 days by H and E staining based analysis; assay type: organism-based; conditions: in vivo, 672 h, time 28 day
DLD-1 = experiment: Inhibition of colony formation in BRCA2 knockout human DLD-1 cells assessed as reduction in survival rate incubated for 10 days by crystal violet staining based assay; assay type: functional, cell-based; conditions: dose 0.1-100 nM, time 10.0 day
MDA-MB-436 [14] = experiment: Antitumor activity against human MDA-MB-436 cells xenografted in female NOD/SCID mouse assessed as tumor regression rate at 1 mg/kg, po administered once every other day for 28 days relative to control; assay type: functional; conditions: time 28 day
[15] = Tmax in male Balb/c mouse at 1 mg/kg, iv measured upto 96 hrs by LC-MS/MS analysis; assay type: ADME, organism-based; conditions: in vivo
[16] = Acute toxicity in Kunming mouse assessed as change in cellular morphology of kidney at 100 mg/kg administered once every other day via gavage for 14 days by H and E staining based analysis; assay type: organism-based; conditions: in vivo, po, 336 h, time 14 day
[17] = biological target: T1, Poly [ADP-ribose] polymerase 1; experiment: Inhibition of PARP1 in PARP2 knockout human A549 cells preincubated with compound for 1 hr followed by H2O2 addition and measured after 5 mins by selective targeting PARylation inhibition assay; assay type: cell-based
[18] = Oral bioavailability in rat at 2.5 mg/kg measured upto 96 hrs by LC-MS/MS analysis; assay type: ADME, organism-based; conditions: in vivo
MDA-MB-436 [19] = experiment: Antiproliferative activity against human MDA-MB-436 cells assessed as inhibition of cell proliferation at 100 nM incubated for 7 days by CCK-8 assay relative to control; assay type: functional; conditions: MDA-MB-436, 168 h, time 7 day
MDA-MB-436 [20] = experiment: Induction of cell cycle arrest in human MDA-MB-436 cells assessed as accumulation of cells at G0/G1 phase at 100 nM incubated for 3 days by PI staining based flow cytometric analysis (Rvb =56.18%); assay type: functional; conditions: time 3 day
[21] = Toxicity in female NOD/SCID mouse xenografted with human MDA-MB-436 cells assessed as histological changes in kidney at 3 mg/kg, po administered once every other day for 28 days by H and E staining based analysis; assay type: organism-based; conditions: in vivo, 672 h, time 28 day
[22] = Sub-acute toxicity in Kunming mouse assessed as change ALTL level at 100 to 300 mg/kg administered via gavage for 14 days; assay type: organism-based; conditions: in vivo, po, 336 h, dose 100-300 mg/kg, time 14 day
[23] = Cmax in rat at 2.5 mg/kg, po measured upto 96 hrs by LC-MS/MS analysis; assay type: ADME, organism-based; conditions: in vivo
[24] = Acute toxicity in Kunming mouse assessed as change in cellular morphology of liver at 100 mg/kg administered once every other day via gavage for 14 days by H and E staining based analysis; assay type: organism-based; conditions: in vivo, po, 336 h, time 14 day
[25] = Sub-acute toxicity in Kunming mouse assessed as change ALB2 level at 30 to 100 mg/kg administered via gavage once every other day for 14 days; assay type: organism-based; conditions: in vivo, po, 336 h, dose 30-100 mg/kg, time 14 day
[26] = Acute toxicity in Kunming mouse assessed as change in cellular morphology of lung at 100 mg/kg administered once every other day via gavage for 14 days by H and E staining based analysis; assay type: organism-based; conditions: in vivo, po, 336 h, time 14 day
[27] = biological target: Poly [ADP-ribose] polymerase 2 (Homo sapiens, UniProt Q9UGN5); experiment: Inhibition of PARP2 (unknown origin) preincubated with compound for 10 mins followed by DNA and NAD+ addition and measured after 60 mins by chemiluminescence based envision reader analysis
MDA-MB-436 [28] = experiment: Induction of DNA damage in human MDA-MB-436 cells assessed as increase in gammaH2AX foci at 0.1 to 1000 nM incubated for 3 days by DAPI staining based immunofluorescence analysis; assay type: functional, cell-based; conditions: dose 0.1-1000 nM, time 3.0 day
[29] = Apparent volume of distribution in rat at 2.5 mg/kg, po measured upto 96 hrs by LC-MS/MS analysis; assay type: ADME, organism-based; conditions: in vivo
[30] = Sub-acute toxicity in Kunming mouse assessed as change CREA2 level at 30 to 100 mg/kg administered via gavage once every other day for 14 days; assay type: organism-based; conditions: in vivo, po, 336 h, dose 30-100 mg/kg, time 14 day
[31] = Sub-acute toxicity in Kunming mouse assessed as change ALTL level at 30 to 100 mg/kg administered via gavage once every other day for 14 days; assay type: organism-based; conditions: in vivo, po, 336 h, dose 30-100 mg/kg, time 14 day
MDA-MB-436 [32] = experiment: Induction of cell cycle arrest in human MDA-MB-436 cells assessed as accumulation of cells at S phase at 1 nM incubated for 3 days by PI staining based flow cytometric analysis (Rvb =18.94%); assay type: functional; conditions: time 3 day
[33] = Acute toxicity in Kunming mouse assessed as change in body weight at 30 to 100 mg/kg administered via gavage once every other day for 14 days; assay type: organism-based; conditions: in vivo, po, 336 h, dose 30-100 mg/kg, time 14 day
[34] = Cmax in male Balb/c mouse at 1 mg/kg, po measured upto 96 hrs by LC-MS/MS analysis; assay type: ADME, organism-based; conditions: in vivo

T1 sequence (P09874 whole entry): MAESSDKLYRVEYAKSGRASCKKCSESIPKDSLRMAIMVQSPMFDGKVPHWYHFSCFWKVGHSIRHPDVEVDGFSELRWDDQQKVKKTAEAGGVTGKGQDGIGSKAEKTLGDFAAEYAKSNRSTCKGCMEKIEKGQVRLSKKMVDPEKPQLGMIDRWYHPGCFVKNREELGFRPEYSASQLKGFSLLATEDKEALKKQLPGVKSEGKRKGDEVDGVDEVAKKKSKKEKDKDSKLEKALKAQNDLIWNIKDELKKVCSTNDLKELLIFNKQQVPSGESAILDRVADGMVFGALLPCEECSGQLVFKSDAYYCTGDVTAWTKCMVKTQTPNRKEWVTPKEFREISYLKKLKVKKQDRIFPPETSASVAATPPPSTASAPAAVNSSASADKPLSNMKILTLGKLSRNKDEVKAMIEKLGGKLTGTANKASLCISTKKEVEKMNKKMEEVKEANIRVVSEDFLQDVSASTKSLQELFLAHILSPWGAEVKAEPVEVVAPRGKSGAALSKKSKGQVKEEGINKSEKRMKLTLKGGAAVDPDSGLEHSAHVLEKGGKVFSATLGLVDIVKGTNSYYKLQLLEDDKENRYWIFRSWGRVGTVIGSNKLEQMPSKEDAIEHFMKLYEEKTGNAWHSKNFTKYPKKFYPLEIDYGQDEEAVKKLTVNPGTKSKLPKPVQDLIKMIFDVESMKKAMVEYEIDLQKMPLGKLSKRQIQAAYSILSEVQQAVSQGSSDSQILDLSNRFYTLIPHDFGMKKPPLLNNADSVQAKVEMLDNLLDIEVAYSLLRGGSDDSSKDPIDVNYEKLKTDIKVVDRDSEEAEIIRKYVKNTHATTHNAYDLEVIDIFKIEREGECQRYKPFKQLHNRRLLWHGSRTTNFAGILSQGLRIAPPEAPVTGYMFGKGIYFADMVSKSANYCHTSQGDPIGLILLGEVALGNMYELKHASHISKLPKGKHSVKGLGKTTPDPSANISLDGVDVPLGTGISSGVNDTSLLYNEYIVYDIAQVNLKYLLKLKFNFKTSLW
Poly [ADP-ribose] polymerase 2, sequence (Q9UGN5 whole entry): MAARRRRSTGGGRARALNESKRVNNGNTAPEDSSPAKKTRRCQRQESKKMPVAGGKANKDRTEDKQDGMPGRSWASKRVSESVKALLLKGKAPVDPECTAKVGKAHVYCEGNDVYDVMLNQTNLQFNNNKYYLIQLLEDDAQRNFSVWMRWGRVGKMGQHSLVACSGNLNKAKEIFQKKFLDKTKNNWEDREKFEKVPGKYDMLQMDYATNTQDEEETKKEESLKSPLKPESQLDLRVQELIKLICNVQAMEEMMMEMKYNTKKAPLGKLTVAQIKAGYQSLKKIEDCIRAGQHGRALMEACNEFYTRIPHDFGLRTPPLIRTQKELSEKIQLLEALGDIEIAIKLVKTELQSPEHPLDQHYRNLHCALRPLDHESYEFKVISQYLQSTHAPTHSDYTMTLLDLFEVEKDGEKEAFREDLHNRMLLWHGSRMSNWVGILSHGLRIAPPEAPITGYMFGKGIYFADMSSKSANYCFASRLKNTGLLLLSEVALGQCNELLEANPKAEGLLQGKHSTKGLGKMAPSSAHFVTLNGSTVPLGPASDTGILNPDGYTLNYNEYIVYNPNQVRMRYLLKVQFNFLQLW

SMILES: CCc1cc2ncc(CN3CC=C(c4ccc(C#N)cn4)CC3)cc2[nH]c1=O
- IC50 [1]: 4.1 nM
- Activity [2]: Non-toxic
- Activity (MDA-MB-436 [3]): 60.25%
- half-life [4]: 47.4 h
- Vz [5]: 0.16 L/kg
- Activity [6]: Non-toxic
- half-life [7]: 27.8 h
- Activity (MDA-MB-436 [8]): 20.3%
- EC50 [9]: 0.9 nM
- Activity (MDA-MB-436 [10]): 56.97%
- Activity (MDA-MB-436 [11]): 79.8%
- Survival (MDA-MB-436 [12]): 70 days
- Activity [13]: Non-toxic
- inhibition (DLD-1): Dose-dependent-effect
- Activity (MDA-MB-436 [14]): 59.4%
- Tmax [15]: 4.8 min
- Activity [16]: Non-toxic
- IC50 [17]: 0.9 nM
- bioavailability [18]: 85.5%
- inhibition at 0.1 µM (MDA-MB-436 [19]): 82.2%
- Activity (MDA-MB-436 [20]): 53.32%
- Activity [21]: Non-toxic
- Activity [22]: Non-toxic
- Cmax [23]: 7540 ng/mL
- Activity [24]: Non-toxic
- Activity [25]: Non-toxic
- Activity [26]: Non-toxic
- IC50 [27]: 122 nM
- Activity (MDA-MB-436 [28]): Active
- Vz [29]: 0.33 L/kg
- Activity [30]: Non-toxic
- Activity [31]: Non-toxic
- Activity (MDA-MB-436 [32]): 14.99%
- Activity [33]: Non-toxic
- Cmax [34]: 6630 ng/mL

Source: ChEMBL document CHEMBL6096703 (J Med Chem, 2025)
